# In patent publication US11064704B2, “Natural product formulations with improved residual insect repellent/deterrent activity” (University of Mississippi, priority 2016, dated 2021):
# Assays:
# An. quadrimaculatus = assay: in vitro Klun and Debboun (K&D) biting deterrent bioassay; assay type: in vivo, Anopheles quadrimaculatus
# Protocol: Experiments were conducted by using a six-celled in vitro Klun and Debboun (K&D) module bioassay system developed by Klun et al. (2005) for quantitative evaluation of biting deterrence. Briefly, the assay system consists of a six well reservoir with each of the 3×4 cm wells containing 6 mL of blood or feeding solution. As described by Ali et al. (2012), a feeding solution consisting of CPDA-1 and ATP was used instead of blood. Green fluorescent tracer dye (www.blacklightworld.com) was used to determine the feeding by the females. Carrot seed essential oil was initially tested to determine the biting deterrent activity. […] Essential oil and carotol were further tested against Ae. aegypti and An. quadrimaculatus in this bioassay. Treatments of carrot seed essential oil at 10 μg/cm^2 and carotol were tested at 10 and 5 μg/cm^2, whereas DEET (97% N,N-diethyl-meta-toluamide) (Sigma Aldrich, St. Louis, Mo.) at 25 nmol/cm^2 was used as positive control. All the treatments were freshly prepared in molecular biology grade 100% ethanol (Fisher Scientific Chemical Co. Fairlawn, N.J.) at the time of bioassay.
# The temperature of the solution in the reservoirs was maintained at 37° C. by continuously passing warm water through the reservoir using a circulatory bath. The reservoirs were covered with a layer of collagen membrane (Devro, Sandy Run, S.C.). The test compounds were randomly applied to six 4×5 cm areas of organdy cloth and positioned over the membrane-covered CPDA-1+ATP solution with a Teflon® separator placed between the treated cloth and the six-celled module to prevent the contamination of the module. […] The number of mosquitoes biting through organdy treatments in each cell was recorded after a 3 minute exposure, and mosquitoes were prodded back into the cells to check the actual feeding. […] Proportion not biting (PNB) was calculated using the procedure described by Ali et al. (2012).
# [1] = system: Anopheles quadrimaculatus mosquitoes; assay: in vitro A&K (Ali and Khan) repellent bioassay; assay type: in vivo; details: compared with DEET
# Source text: The A&K (Ali and Khan) bioassay system is based on the concept that the mosquitoes are attracted to warm temperatures, and this system uses warm temperature to serve as stimulus for landing and feeding. The details of the A&K bioassay systems are given in Ali et al. (2017).
# In summary, this in vitro system consisted of a 30×30×30 cm collapsible aluminum cage (Model 1450B, BioQuip Products, 2321 Gladwick Street, Rancho Dominguez, Calif. 90220, USA) with metal screens. On one panel of the cage, metal screen was replaced with a clear acrylic transparent sheet. […] The blood box had three sides covered with acrylic sheet while the front side was open to insert the feeding device. […] The sliding door served to contain the females inside the cage when the feeding device was pulled out for loading the treatment. This door was slid open when the feeding device was pushed in during the bioassay to expose the females to the treatment.
# The feeding device had one 3×4 cm rectangular reservoir that contained the feeding solution. The feeding device was connected to the water circulator. The reservoir of the feeding device with feeding solution was covered with a chemical treated collagen sheet. To observe the landing and feeding of female mosquitoes, feeding solution in the reservoir was heated to match the human body temperature using a water circulator which was set at 37° C. The feeding solution had 3-4° C. higher temperature than the solid platform, and this increased temperature of the feeding solution became a better source of attraction and preference for the mosquitoes than the other parts of the feeding device.
# The rectangular reservoir of the feeding device was filled with the CPDA 1+ATP solution having a few drops of green fluorescent traceable water-soluble dye to serve as a feeding source. A test was started when the 3×4 cm marked areas of collagen were treated with the desired chemical in a volume of 50 μL/[…]. The treated collagen sheet was then secured on the reservoir using a thin layer of high vacuum grease (Dow Corning Corporation, Midland, Mich. 48686). The feeding device was then pushed into the blood box and the sliding door was opened to expose females to the treatment.
# Stock solutions were made in ethanol. All the dilutions were made in EtOH and applied in a volume of 50 μL covering […] of the collagen sheet. Minimum effective dosage (MED) values in this in vitro bioassay were determined using a method described by Katritzky et al. (2010).
# The cage contained 200±10, 8-18 day old female mosquitoes. The number of mosquitoes landing and biting were recorded visually for 1 minute. Three or four cages were used at a time, and one treatment was evaluated in a single cage. The minimum dose at which 2 or less mosquitoes (i.e. less than or equal to 1% of 200 females in the cage) started feeding in 1 minute was the minimum effective dose (“MED”). Continuous exposure of the mosquitoes in the cage can result in reduced landing and biting, therefore, 3-4 cages were used and only one replication was completed for each chemical in a single cage. To ensure accuracy of the treatment, rectangular areas of (3×4 cm (12 cm^2) or 7.5×4 cm (30 cm^2) were marked on the collagen that matched the measurement of the rectangular liquid reservoirs. Treatments were applied in a volume of 50 μL (12 cm^2 area) or 107 μL (30 cm^2 area). Treated collagen sheets were secured on a feeding reservoir containing CPDA-1+ATP solution using a thin layer of grease (Dow Corning Corp, Midland, Mich.). The feeding device was pushed inside the blood box and the sliding door was […] to expose the females to the treatment.
# To ensure the normal activity (≥10% landing), control treatment was repeated after every 5 replications, and the bioassay was stopped if the response was less than the control. The data is presented as MED values with the mean percentage biting (±SEM) in parenthesis. […]
smiles,measurement,setting,value
CC1=CC[C@]2(C)CC[C@@H](C(C)C)[C@]2(O)CC1 [carotol],proportion not biting (PNB),An. quadrimaculatus; 25 nmol/cm^2,0.72
same,proportion not biting (PNB),An. quadrimaculatus; 10 μg/cm^2,0.78
same,biting deterrent activity,An. quadrimaculatus; compared with DEET,comparable to DEET
same,repellent activity,[1],comparable to DEET
